1 compound from US20190125735A1, “INHIBITION OF P38 MAPK FOR THE TREATMENT OF CANCER” (Board of Regents, The University of Texas System, priority 2015, published 2019) can be followed below.

Common to all, as to assay type: cell-based, human
For test [1], the system named is HMLE-Snail-ER and HMLE-Twist-ER cells. The experiment in a line: Sphere formation of 4-OHT-treated HMLE-Snail-ER and HMLE-Twist-ER cells. The settings on record: 4-OHT-treated cells, SB203580 exposure. As for the experimental part: FIGS. 15A-15L: p38 inhibition compromises the acquisition and maintenance of EMT and stem cell properties in vitro. […] Cells were harvested and the corresponding lysates were analyzed by immunoblotting for FOXC2, E-cadherin and mesenchymal markers. β-actin was used as a loading control. […] Cells were harvested at the indicated timepoints and the corresponding lysates were analyzed by immunoblotting for FOXC2, E-cadherin and mesenchymal markers. β-actin was used as a loading control. […] One thousand cells were seeded per well in ultra-low attachment plates and cultured for 7-10 days. Spheres with a diameter greater than 75 μm were counted. The data are reported as the number of spheres formed/1000 seeded cells±SEM. […] Data are presented as mean±SEM. […] The corresponding lysates were analyzed by immunoblotting for FOXC2, E-cadherin and mesenchymal markers. β-actin was used as a loading control. (F) The sphere-forming efficiency of 4-OHT-treated HMLE-Twist-ER cells, transduced with control shRNA (shControl) or p38 shRNA (shp38), was determined. […] (H) The sphere-forming efficiency of the indicated cells was determined in the presence of vehicle or SB203580. […] (J) The relative wound closure by the indicated cells, treated with vehicle or SB203580, was measured by image analysis and represented in a graphical format. […] Degradation of FITC-gelatin was quantified by image analysis. n=150 cells/sample. […]

Test [2] relates to DU145 cells. The experiment in a line: Morphology and marker expression (qRTPCR, immunoblotting, IF) in DU145 cells. As for the experimental part:
Cell lines: Authenticated LNCaP, DU145, and PC3 cells were procured from ATCC and cultured in RPMI with 10% fetal bovine serum (FBS) with penicillin/streptomycin. Cells overexpressing EMT transcription factors and shRNA were also cultured in the same media. HEK293T cells were cultured in DMEM with 10% FBS and penicillin/streptomycin. All cell lines used for this study were recently confirmed negative for mycoplasma contamination.
Immunoblotting, Immunofluorescence, RTPCR, wound healing- and tumorsphere assays were performed as previously described (Sarkar et al., 2015). Cell viability (MTS) was assessed using the CellTiter96 Aqueous One-Solution Cell Proliferation Assay kit (Promega).

Another test concerns FOXC2. The experiment in a line: FOXC2 protein levels by immunoblotting in mammary cell lines. The settings on record: series of cell lines, relative to vehicle, 24 h. The procedure: Immortalized human mammary epithelial (HMLE) cells expressing empty vector (pWZL), Snail, Twist, Goosecoid (GSC), or an activated form of TGFβ1, V12H-Ras-transformed HMLE (HMLER) and HMLER-FOXC2 cells were maintained as previously described (Elenbaas et al., 2001) For 4-hydroxy-tamoxifen (4-OHT) treatment, HMLE-Snail-ER or HMLE-Twist-ER cells were exposed to 20 nM 4-OHT for the indicated number of days. MCF7, MDA-MB-231 and SUM159 human breast cancer cells and the 4T1 mouse mammary carcinoma cells were cultured as described. Human non-tumorigenic MCF10A cells were cultured as described (Hollier et al., 2013), and treated with 2.5 ng/ml TGFβ1 for 3 days to elicit EMT.
Immunoblotting and immunofluorescence (Mani et al., 2008) were performed as previously described. Primary antibodies were as follows: β-actin (Sigma, St Louis, Mo., USA; A3853), mouse anti-human FOXC2 (Dr. Naoyuki Miura, Hamamatsu University School of Medicine, Japan), goat polyclonal anti-FOXC2 (Santa Cruz Biotechnology, Dallas, Tex., USA; sc-21397), p-p38 (Cell Signaling, Danvers, Mass., USA; 4511), p38 (Cell Signaling; 9211), E-cadherin (BD Biosciences, San Jose, Calif., USA; 61081), fibronectin (BD Biosciences; 610077), vimentin (Novus Biologicals, Littleton, Colo., USA; NB200-623), ZEB1 (Novus Biologicals; NBP1-05987), and HA (Covance, Princeton, N.J., USA; MMS-101P).

In test [3] the test system is DU145 cells. The experiment in a line: FACS CD44/CD24 in DU145 cells. The settings on record: DU145, 5 μM, 7 days. As for the experimental part: Fluorescence-activated cell sorting (FACS) for PSAHi & PSA−/lo cells and CD44Hi & CD24Lo cells was performed as described previously (Hollier et al., 2013) using BD Influx sorter.

Regarding `C[S+]([O-])c1ccc(-c2nc(-c3ccc(F)cc3)c(-c3ccncc3)[nH]2)cc1` (centres unmarked) [SB203580, 4-(4-Fluorophenyl)-2-(4-methylsulfinylphenyl)-5-(4-pyridyl) 1H-imidazole], the Sphere-forming potential entry in test [1] was “failed to acquire sphere-forming potential”. Moreover, in the test with DU145 cells [2] (DU145, 5 μM, 7 days), the “AR and PSA expression” value is “restoration of AR and PSA expression”; the “Expression of Bmi1 and Sox2” value is on record as “significant reduction”; the FOXC2 expression result is “dramatic loss in FOXC2 expression”; the Morphology / phenotype entry is “acquisition of an epithelial phenotype”. The “Expression of AR, PSA and E-cadherin over time (qRTPCR)” value in the test on DU145 cells [2] (DU145, days 0-7 after treatment) is recorded as “consistently increased right after 48 hours, but reached highest levels at day 7”. Moreover, the FOXC2 protein levels result in the test on FOXC2 is “consistent and striking decrease in FOXC2 protein levels”. In addition, the “CD44^hi/CD24^lo fraction” value with DU145 cells [3] is “significant reduction”.
